Reference: PubChem BioAssay AID206 (DTP/NCI, 2004)
Where “and” joins values, the source holds several entries; their conditions need not be identical. Equal entries are not always repeated. Inconclusive results are not listed. Residues, ends and D or L forms follow the SMILES beside them. *: point of attachment. Trt = c1ccc(C(c2ccccc2)(c2ccccc2)*)cc1; Cbz = O=C(OCc1ccccc1)*

Test system: nude mice, HT29 intrarenal xenograft, tumor weight T/C
Test: NCI In Vivo Anticancer Drug Screen. Data for tumor model HT29;CX-1 Human Adenocarcinoma (MER+) (intrarenal inoculation) in NU/NU Swiss (nude) mice
Conditions: endpoint: mean tumor weight change, higher = larger tumour
Procedure, shortened: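 Compounds were given to mice carrying transplantable tumors; a vehicle-dosed group served as control. The endpoint measured in each group was compared as a T/C quotient.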

[1] = dose: 300.0 mg/kg/injection, schedule: Q04DX004 (sc), vehicle: Klucel (hydroxypropylcellulose) (HPC)
[2] = dose: 100.0 mg/kg/injection, schedule: Q01DX010 (sc), vehicle: saline with Tween-80
[3] = dose: 200.0 mg/kg/injection, schedule: Q01DX010 (sc), vehicle: saline with Tween-80
[4] = dose: 50.0 mg/kg/injection, schedule: Q01DX010 (sc), vehicle: Klucel (hydroxypropylcellulose) (HPC)
[5] = dose: 100.0 mg/kg/injection, schedule: Q01DX010 (sc), vehicle: Klucel (hydroxypropylcellulose) (HPC)
[6] = dose: 200.0 mg/kg/injection, schedule: Q04DX004 (sc), vehicle: saline with Tween-80
[7] = dose: 1600.0 mg/kg/injection, schedule: Q04DX004 (sc), vehicle: saline with Tween-80
[8] = dose: 400.0 mg/kg/injection, schedule: Q04DX004 (sc), vehicle: saline with Tween-80

With CCOC(=O)C1=C(C#N)C2(CCC(OCc3ccccc3)CC2)C(=O)O1 (stereo unspecified) the T/C (dose: 100.0 mg/kg/injection, schedule: Q04DX004 (sc), vehicle: suspension in saline) was 91 % of control and the T/C (dose: 800.0 mg/kg/injection, schedule: Q04DX004 (sc), vehicle: suspension in saline) was 110 % of control.
In the case of CN(C)C(=O)SC1=C(c2c(Cl)cccc2Cl)C(=O)c2ccccc21, the T/C [1] is reported as 95 % of control and the T/C (dose: 600.0 mg/kg/injection, schedule: Q04DX004 (sc), vehicle: Klucel (hydroxypropylcellulose) (HPC)) is reported as 158 % of control.
With C[C@]12CC[C@H]3[C@@H](CCC4=C[C@@H](OC5OCC(OC6OC(CO)C(O)C(O)C6O)C(O)C5O)CC[C@@]43C=O)[C@@]1(O)CCC2C1=CC(=O)OC1 (stereo partly specified) the T/C (dose: 3.75 mg/kg/injection, schedule: Q04DX004 (sc), vehicle: Klucel (hydroxypropylcellulose) (HPC)) was 67 % of control, the T/C (dose: 7.5 mg/kg/injection, schedule: Q04DX004 (sc), vehicle: Klucel (hydroxypropylcellulose) (HPC)) was 97 % of control and the T/C (dose: 15.0 mg/kg/injection, schedule: Q04DX004 (sc), vehicle: Klucel (hydroxypropylcellulose) (HPC)) was 93 % of control. For the same compound, the T/C (dose: 30.0 mg/kg/injection, schedule: Q04DX004 (sc), vehicle: Klucel (hydroxypropylcellulose) (HPC)) was 110 % of control.
With ClCC[N+]12CC[N+](CCCl)(CC1)C2 the T/C (dose: 50.0 mg/kg/injection, schedule: Q01DX010 (sc), vehicle: saline with Tween-80) was 37 % of control, the T/C (dose: 75.0 mg/kg/injection, schedule: Q04DX004 (sc), vehicle: water) was 101 % of control and the T/C [2] was 90 % of control. For the same compound, the T/C (dose: 150.0 mg/kg/injection, schedule: Q04DX004 (sc), vehicle: water) was 107 % of control, the T/C [3] was 96 % of control and the T/C (dose: 300.0 mg/kg/injection, schedule: Q04DX004 (sc), vehicle: water) was 98 % of control and 101 % of control. For the same compound, the T/C (dose: 600.0 mg/kg/injection, schedule: Q04DX004 (sc), vehicle: water) was 43 % of control.
COC(=O)C(CSC(c1ccccc1)(c1ccccc1)c1ccccc1)NC(=O)C(CC(N)=O)NC(=O)OCc1ccccc1 (stereo not drawn) (Cbz-Asn-Cys(Trt)-OMe; configuration not given here) was tested, and the T/C (dose: 150.0 mg/kg/injection, schedule: Q04DX004 (sc), vehicle: distilled water + Tween-80) was 63 % of control, the T/C (dose: 300.0 mg/kg/injection, schedule: Q04DX004 (sc), vehicle: distilled water + Tween-80) was 69 % of control and the T/C (dose: 600.0 mg/kg/injection, schedule: Q04DX004 (sc), vehicle: distilled water + Tween-80) was 81 % of control. For the same compound, the T/C (dose: 1200.0 mg/kg/injection, schedule: Q04DX004 (sc), vehicle: distilled water + Tween-80) was 83 % of control.
In the case of C(COCCOCC1CO1)OCCOCC1CO1 (stereo unspecified), the T/C (dose: 150.0 mg/kg/injection, schedule: Q04DX004 (sc), vehicle: saline) is reported as 63 % of control, the T/C (dose: 300.0 mg/kg/injection, schedule: Q04DX004 (sc), vehicle: saline) is reported as 55 % of control and the T/C (dose: 600.0 mg/kg/injection, schedule: Q04DX004 (sc), vehicle: saline) is reported as 43 % of control.
For CC(=O)OCc1cc(=O)n(C)c2c3c4c(cc12)c(C)cc(=O)n4CO3, the T/C (dose: 25.0 mg/kg/injection, schedule: Q01DX010 (sc), vehicle: Klucel (hydroxypropylcellulose) (HPC)) was 99 % of control, the T/C [4] was 105 % of control and the T/C [5] was 59 % of control. For the same compound, the T/C (dose: 200.0 mg/kg/injection, schedule: Q01DX010 (sc), vehicle: Klucel (hydroxypropylcellulose) (HPC)) was 34 % of control.
In the case of CCOC(=O)C(C)(C)Oc1ccc(Cl)cc1, the T/C (dose: 300.0 mg/kg/injection, schedule: Q04DX004 (sc), vehicle: saline with Tween-80) is reported as 72 % of control, the T/C (dose: 600.0 mg/kg/injection, schedule: Q04DX004 (sc), vehicle: saline with Tween-80) is reported as 70 % of control and the T/C (dose: 1200.0 mg/kg/injection, schedule: Q04DX004 (sc), vehicle: saline with Tween-80) is reported as 68 % of control.
For BrCC[Se]c1ccccc1, the T/C [6] was 16 % of control.
With O=C(O)C1Cc2nc[nH]c2CN1CO (stereo unspecified) the T/C (dose: 100.0 mg/kg/injection, schedule: Q04DX004 (sc), vehicle: saline with Tween-80) was 90 % of control and the T/C [7] was 108 % of control.
COc1ccc2[nH]c3c(c2c1)CCNC3CC(C)CCC=C(C)C (stereo unspecified) was tested, and the T/C (dose: 37.5 mg/kg/injection, schedule: Q04DX004 (sc), vehicle: Klucel (hydroxypropylcellulose) (HPC)) was 47 % of control, the T/C (dose: 150.0 mg/kg/injection, schedule: Q04DX004 (sc), vehicle: Klucel (hydroxypropylcellulose) (HPC)) was 62 % of control and the T/C [1] was 55 % of control.
In the case of C[C@]12CC[C@@H]3c4ccc(OC(=O)Cc5ccc(N(CCCl)CCCl)cc5)cc4CC[C@H]3[C@@H]1CC[C@@H]2OC(=O)Cc1ccc(N(CCCl)CCCl)cc1, the T/C [6] is reported as 106 % of control, the T/C [8] is reported as 70 % of control and the T/C (dose: 800.0 mg/kg/injection, schedule: Q04DX004 (sc), vehicle: saline with Tween-80) is reported as 113 % of control. The T/C [7] was 111 % of control.
With C[N+](C)(C)c1cc2c(nn1)Nc1ccccc1S2 the T/C [4] was 25 % of control and the T/C [5] was 85 % of control.
With Nc1nc(-c2cccc3ccccc23)cc2ccccc12 the T/C [6] was 67 % of control and the T/C [8] was 105 % of control.
CCCCCCCCCCS(=O)CC(CO)NC(=O)/C=C/c1c(C)[nH]c(=O)[nH]c1=O (stereo unspecified) was tested, and the T/C (dose: 9.38 mg/kg/injection, schedule: Q04DX004 (sc), vehicle: distilled water + Tween-80) was 90 % of control, the T/C (dose: 18.75 mg/kg/injection, schedule: Q04DX004 (sc), vehicle: distilled water + Tween-80) was 100 % of control and the T/C (dose: 37.5 mg/kg/injection, schedule: Q04DX004 (sc), vehicle: distilled water + Tween-80) was 80 % of control.
CC[C@H](CC[C@@H](C)C1CC[C@H]2[C@@H]3CC=C4C[C@@H](OP(=O)(N5CC5)N5CC5)CC[C@]4(C)[C@H]3CC[C@]12C)C(C)C (stereo partly specified) was tested, and the T/C [2] was 73 % of control and the T/C (dose: 800.0 mg/kg/injection, schedule: Q01DX010 (sc), vehicle: saline with Tween-80) was 97 % of control.
For Cc1cc(C)c(-c2cc(O)c(C)cc2O)c(C)c1, the T/C (dose: 1200.0 mg/kg/injection, schedule: Q04DX004 (sc), vehicle: Klucel (hydroxypropylcellulose) (HPC)) was 68 % of control and the T/C (dose: 2400.0 mg/kg/injection, schedule: Q04DX004 (sc), vehicle: Klucel (hydroxypropylcellulose) (HPC)) was 71 % of control.
With O=[N+]([O-])c1ccc(-n2[nH]nnc2=S)cc1 the T/C (dose: 100.0 mg/kg/injection, schedule: Q04DX004 (sc), vehicle: Klucel (hydroxypropylcellulose) (HPC)) was 94 % of control, the T/C (dose: 200.0 mg/kg/injection, schedule: Q04DX004 (sc), vehicle: Klucel (hydroxypropylcellulose) (HPC)) was 92 % of control and the T/C (dose: 400.0 mg/kg/injection, schedule: Q04DX004 (sc), vehicle: Klucel (hydroxypropylcellulose) (HPC)) was 96 % of control. For the same compound, the T/C (dose: 800.0 mg/kg/injection, schedule: Q04DX004 (sc), vehicle: Klucel (hydroxypropylcellulose) (HPC)) was 80 % of control.
With C=C1C(C)C2C(Cc3ccccc3)NC(=O)C23C(OC(C)=O)/C=C/C(C)(O)CC(C)C/C=C/C3C1O (stereo unspecified) the T/C (dose: 3.13 mg/kg/injection, schedule: Q04DX004 (sc), vehicle: distilled water + Tween-80) was 42 % of control, the T/C (dose: 6.25 mg/kg/injection, schedule: Q04DX004 (sc), vehicle: distilled water + Tween-80) was 124 % of control and the T/C (dose: 12.5 mg/kg/injection, schedule: Q04DX004 (sc), vehicle: distilled water + Tween-80) was 87 % of control. For the same compound, the T/C (dose: 25.0 mg/kg/injection, schedule: Q04DX004 (sc), vehicle: distilled water + Tween-80) was 63 % of control.
In the case of CN(C)c1nc(N(C)C)nc(N(C)C)n1, the T/C (dose: 15.0 mg/kg/injection, schedule: Q01DX010 (sc), vehicle: saline with Tween-80) is reported as 90 % of control and the T/C (dose: 30.0 mg/kg/injection, schedule: Q01DX010 (sc), vehicle: saline with Tween-80) is reported as 81 % of control and 101 % of control and 222 % of control.
O=C1N(Cl)C(=O)C(c2ccc(Cl)cc2)(c2ccc(Cl)cc2)N1Cl was tested, and the T/C [2] was 105 % of control and the T/C [3] was 83 % of control.
O=[N+]([O-])/C=C\c1ccc2c(c1)OCO2 was tested, and the T/C [5] was 55 % of control, the T/C (dose: 400.0 mg/kg/injection, schedule: Q01DX010 (sc), vehicle: Klucel (hydroxypropylcellulose) (HPC)) was 163 % of control and the T/C (dose: 800.0 mg/kg/injection, schedule: Q01DX010 (sc), vehicle: Klucel (hydroxypropylcellulose) (HPC)) was 77 % of control.
With CCCCCC[C@H]([C@H](C)O)n1cnc2c(N)ncnc21 the T/C (dose: 50.0 mg/kg/injection, schedule: Q01DX010 (sc), vehicle: saline) was 26 % of control, the T/C (dose: 100.0 mg/kg/injection, schedule: Q01DX010 (sc), vehicle: saline) was 61 % of control and the T/C (dose: 200.0 mg/kg/injection, schedule: Q01DX010 (sc), vehicle: saline) was 56 % of control.
In the case of O=C1C(NCC(O)CO)=C(N2CC2)C(=O)C(NCC(O)CO)=C1N1CC1 (stereo unspecified), the T/C (dose: 4.0 mg/kg/injection, schedule: Q04DX004 (sc), vehicle: saline) is reported as 86 % of control, the T/C (dose: 8.0 mg/kg/injection, schedule: Q04DX004 (sc), vehicle: saline) is reported as 28 % of control and the T/C (dose: 16.0 mg/kg/injection, schedule: Q04DX004 (sc), vehicle: saline) is reported as 25 % of control.
